Counter-ions that a name gives are not always drawn.
Experiments:
[1] = tested on: Compound 48/80-induced scratching; assay: mouse scratch model: antagonism of Compound 48/80-induced scratching (anti-pruritic activity); assay type: in vivo, male Swiss albino mice; settings: sc, 0.5 h, Compound 48/80 challenge, 30 min observation
Procedure: Testing was performed in a mouse scratch model under blind conditions.
Groups of 8-10 male Swiss albino mice (Hilltop Lab Animals, Inc., Scottsdale, Pa.), weighing […], were used in the testing. They were housed under controlled temperature of 23°-25° C. Food and water were freely available. Before the experiments, the mice were weighted, put into individual boxes and allowed to acclimate for 30 min.
Vehicle used to dissolve the test compounds: 20% w/w cremafor EL.
The compounds to be tested for anti-pruritic activity were dissolved in the vehicle of 20% w/w cremafor EL.
100 μl of the vehicle (3-5 doses, n=8-10) was injected s.c. into the back of the neck of mice 20 min. before challenging them with 100 μl of Compound 48/80 (2 mg/ml; […]) injected s.c. into the back of the neck.
To each mouse of a group of 8-10 mice previously subjected to the standard challenge various doses of the compounds, to be tested for anti-pruritic activity, were administered s.c. into the back of the neck.
For each group of 8-10 mice, the mean values for scratching were no to relative % antagonism of scratching and then plotted vs. dose of test compounds. Interval estimates of mean A50 were determined by nonlinear regression analysis (Kaleida Graph) and mean % inhibition of scratching was calculated.

[2] = in vivo; hydrochloride; cited from earlier work
[3] = in vivo, iv; cited from earlier work

Row | Compound | inhibition at 2.5 mg/kg [1] [%] | inhibition at 5 mg/kg [1] [%] | further results
1 | O=C(O)C1(c2ccccc2)CCN(CCC(c2ccccc2)(c2ccccc2)c2ccccn2)CC1 [(1), 1-[3,3-diphenyl-3-(2-pyridyl)propyl]-4-phenyl-4-piperidinecarboxylic acid hydrochloride] | 32 | 65 | inhibition at 10 mg/kg ([1]; 10.0 mg/kg): 83%
2 | OC1(Cc2ccc(Cl)cc2)CCN(CCC(c2ccccc2)(c2ccccc2)c2ccccc2)CC1 [(2), 1-(3,3,3-triphenylpropyl)-4-hydroxy-4-p-chlorobenzylpiperidine] | 68 | 94 | inhibition at 1 mg/kg ([1]; 1.0 mg/kg): 35%
3 | CN(C)C(=O)C(CCN1CCC(O)(c2ccc(Cl)cc2)CC1)(c1ccccc1)c1ccccc1 [Loperamide HCl, 4-(p-chlorophenyl)-4-hydroxy-N-N-dimethyl-α,α-diphenyl-1-piperidinebutyramide hydrochloride] |  |  | CNS effects [2]: completely free of the undesirable CNS effects
4 | CN1CC[C@]23c4c5ccc(O)c4O[C@H]2[C@@H](O)C=C[C@H]3[C@H]1C5 [morphine] |  |  | general itching, incidence [3]: about 1 % of patients
